{"source": "patent US8106055B2", "about": "“Substituted amide compounds” (Gruenenthal GmbH, priority 2007, dated 2012)"}
{"target": "T1, bradykinin 1 receptor (B1R) of the rat (Rattus norvegicus, UniProt P97583)", "T1 construct": "expressed in transfected cells; host or cells: CHO K1 cells", "T1 sequence (P97583 1-337)": "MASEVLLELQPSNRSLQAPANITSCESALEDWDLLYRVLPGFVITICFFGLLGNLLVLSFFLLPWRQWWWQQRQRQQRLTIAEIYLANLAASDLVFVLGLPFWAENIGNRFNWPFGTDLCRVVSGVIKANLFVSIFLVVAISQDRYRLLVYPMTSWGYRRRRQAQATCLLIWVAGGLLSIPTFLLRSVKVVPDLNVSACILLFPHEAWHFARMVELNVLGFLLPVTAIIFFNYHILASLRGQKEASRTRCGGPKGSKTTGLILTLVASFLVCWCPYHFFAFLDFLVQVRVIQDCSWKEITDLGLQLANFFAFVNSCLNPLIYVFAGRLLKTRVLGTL", "experiment": "Functional investigation on the rat bradykinin 1 receptor (B1R), Ca2+ FLIPR assay in CHO K1 rB1R cells", "format": "cell-based", "conditions": "B1R antagonism rat; test substance 10 μM; Ca2+ FLIPR, CHO K1 rB1R cells", "how_it_was_run": "(§1)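 Cells were dye-loaded with Fluo-4 plus probenecid, then test substances added and Ca2+ influx compared with agonist control for % activation. After 10-20 min, EC80 agonist (Lys-Des-Arg9-bradykinin human; Des-Arg9-bradykinin rat) was applied; suppression gave % inhibition and IC50 values.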", "units": {"B1R Ant. r [10 μM] % Inhibition": "%"}}
{"smiles": "COc1ccc(S(=O)(=O)N(C)CCOCC(=O)NC2CCC(C(c3ccc(F)cc3)N(C)C)CC2)cc1", "note": "(stereo not shown) [Example 549]", "B1R Ant. r [10 μM] % Inhibition": 40}
{"smiles": "CN(C)C(CCc1ccccc1)C1CCC(CNC(=O)COC2CCN(S(=O)(=O)c3ccc(F)cc3)C2)CC1", "note": "(stereo not shown) [Example 574]", "B1R Ant. r [10 μM] % Inhibition": 26}
{"smiles": "COc1cc(C)c(S(=O)(=O)N(CCOCC(=O)NCC2CCC(C(CCc3ccccc3)N(C)C)CC2)Cc2ccccc2)c(C)c1C", "note": "(stereo not shown) [Example 562]", "B1R Ant. r [10 μM] % Inhibition": 23}
{"smiles": "Cc1cc(C)c(S(=O)(=O)N(C)CCOCC(=O)NCCC2CCC(C(c3cccc(F)c3)N(C)C)CC2)c(C)c1", "note": "(stereo not shown) [Example 587]", "B1R Ant. r [10 μM] % Inhibition": 16}
{"smiles": "COc1cc(C)c(S(=O)(=O)N2CCC(OCC(=O)NCC3CCC(C(CCc4ccccc4)N(C)C)CC3)C2)c(C)c1", "note": "(stereo not shown) [Example 565]", "B1R Ant. r [10 μM] % Inhibition": 104}
{"smiles": "CN(C)C(CCc1ccccc1)C1CCC(CNC(=O)COC2CCN(S(=O)(=O)c3ccccc3)CC2)CC1", "note": "(stereo not shown) [Example 578]", "B1R Ant. r [10 μM] % Inhibition": 12}
{"smiles": "Cc1cc(C)c(S(=O)(=O)N(C)CCOCC(=O)NC2CCC(C(c3ccccc3)N(C)C)CC2)c(C)c1", "note": "(stereo not shown) [Example 63, N-(4-((dimethylamino)(phenyl)methyl)cyclohexyl)-2-(2-(N,2,4,6-tetramethylphenylsulfamido)ethoxy)acetamide]", "B1R Ant. r [10 μM] % Inhibition": 8}
{"smiles": "CN(C)C(c1ccc(Cl)cc1)C1CCC(CCNC(=O)COCCN(C)S(=O)(=O)c2ccc(OC(F)(F)F)cc2)CC1", "note": "(stereo not shown) [Example 575]", "B1R Ant. r [10 μM] % Inhibition": 26}
{"smiles": "COc1cc(C)c(S(=O)(=O)N(CCOCC(=O)NCCC2CCC(C(c3ccc(F)cc3)N(C)C)CC2)Cc2ccccc2)c(C)c1C", "note": "(stereo not shown) [Example 554]", "B1R Ant. r [10 μM] % Inhibition": "−11"}
{"smiles": "COc1cc(C)c(S(=O)(=O)N(CCOCC(=O)NCC2CCC(C(c3ccc(Cl)cc3)N(C)C)CC2)Cc2ccccc2)c(C)c1C", "note": "(stereo not shown) [Example 560]", "B1R Ant. r [10 μM] % Inhibition": "−5"}
{"smiles": "COc1ccc(S(=O)(=O)N(C)CCOCC(=O)NCC2CCC(C(CCc3ccccc3)N(C)C)CC2)cc1", "note": "(stereo not shown) [Example 550]", "B1R Ant. r [10 μM] % Inhibition": 50}
{"smiles": "COc1ccc(S(=O)(=O)N2CCCCC2COCC(=O)NCC2CCC(C(CCc3ccccc3)N(C)C)CC2)c(OC)c1", "note": "(stereo not shown) [Example 420]", "B1R Ant. r [10 μM] % Inhibition": 2}
{"smiles": "CN(C)C(CCc1ccccc1)C1CCC(CNC(=O)COC2CCN(S(=O)(=O)c3ccc(Cl)cc3)C2)CC1", "note": "(stereo not shown) [Example 557]", "B1R Ant. r [10 μM] % Inhibition": 29}
{"smiles": "COc1ccc(S(=O)(=O)N2CCCCC2COCC(=O)NCC2CCC(C(CCc3ccccc3)N(C)C)CC2)cc1OC", "note": "(stereo not shown) [Example 570]", "B1R Ant. r [10 μM] % Inhibition": 4}
{"smiles": "CN(C)C(CCc1ccccc1)C1CCC(CNC(=O)COC2CCN(S(=O)(=O)c3cccc(C(F)(F)F)c3)C2)CC1", "note": "(stereo not shown) [Example 552]", "B1R Ant. r [10 μM] % Inhibition": 26}
{"target": "T1, bradykinin 1 receptor (B1R) of the rat", "experiment": "Functional investigation on the rat bradykinin 1 receptor (B1R), Ca2+ FLIPR assay in CHO K1 rB1R cells", "format": "cell-based", "conditions": "CHO-K1, B1R antagonism rat; test substance 10 μM; Ca2+ FLIPR, CHO K1 rB1R cells; read-out: B1R Ant. r [10 μM] % Inhibition", "how_it_was_run": "as §1", "units": {"inhibition at 10 µM": "%"}}
{"smiles": "COc1ccc(S(=O)(=O)N(C)CCOCC(=O)NCC2CCC(C(c3cccs3)N(C)C)CC2)cc1OC", "note": "(stereo not shown) [Example 127, 2-(2-(3,4-Dimethoxy-N-methylphenylsulfonamido)ethoxy)-N-((4-((dimethylamino)(thiophen-2-yl)methyl)cyclohexyl)methyl)acetamide]", "inhibition at 10 µM": 21}
{"smiles": "CN(C)C(c1cccs1)C1CCC(CNC(=O)COCC2CCCN(S(=O)(=O)c3ccccc3)C2)CC1", "note": "(stereo not shown) [Example 101, N-((4-((dimethylamino)(thiophen-2-yl)methyl)cyclohexyl)methyl)-2-((1-(phenylsulfonyl)piperidin-3-yl)methoxy)acetamide]", "inhibition at 10 µM": 27}
{"smiles": "COc1ccc(S(=O)(=O)N2CCCC2COCC(=O)NCC2CCC(C(c3cccs3)N(C)C)CC2)cc1", "note": "(stereo not shown) [Example 105, N-((4-((dimethylamino)(thiophen-2-yl)methyl)cyclohexyl)methyl)-2-((1-(4-methoxyphenylsulfonyl)pyrrolidin-2-yl)methoxy)acetamide]", "inhibition at 10 µM": 24}
{"smiles": "CN(C)C(c1cccc(F)c1)C1CCC(NC(=O)COC2CCCCC2N(C)S(=O)(=O)c2ccc(Cl)c(Cl)c2)CC1", "note": "(stereo not shown) [Example 132, 2-(2-(3,4-dichloro-N-methylphenylsulfonamido)cyclohexyloxy)-N-(4-((dimethylamino)(3-fluorophenyl)methyl)cyclohexyl)acetamide]", "inhibition at 10 µM": 2}
{"smiles": "CN(C)C(c1ccccc1)C1CCC(CNC(=O)COCCN(C)S(=O)(=O)c2ccc(Cl)cc2)CC1", "note": "(stereo not shown) [Example 110, 2-(2-(4-chloro-N-methylphenylsulfonamido)ethoxy)-N-((4-((dimethylamino) (phenyl)methyl)cyclohexyl)methyl)acetamide]", "inhibition at 10 µM": 10}
{"smiles": "CN(C)C(c1cccs1)C1CCC(CNC(=O)COCCN(Cc2ccccc2)S(=O)(=O)c2ccccc2)CC1", "note": "(stereo not shown) [Example 102, 2-(2-(N-benzylphenylsulfonamido)ethoxy)-N-((4-((dimethylamino)(thiophen-2-yl)methyl)cyclohexyl)methyl)acetamide]", "inhibition at 10 µM": -12}
{"smiles": "COc1ccc(S(=O)(=O)N2CCCCC2COCC(=O)NCC2CCC(C(c3ccccc3)N(C)C)CC2)c(OC)c1", "note": "(stereo not shown) [Example 106, 2-((1-(2,4-dimethoxyphenylsulfonyl)piperidin-2-yl)methoxy)-N-((4-((dimethylamino)(phenyl)methyl)cyclohexyl)methyl)acetamide]", "inhibition at 10 µM": 13}
{"smiles": "COc1ccc(S(=O)(=O)N2CCCCC2CCOCC(=O)NC2CCC(C(c3cccs3)N(C)C)CC2)cc1", "note": "(stereo not shown) [Example 6, N-(4-((dimethylamino)(thiophen-2-yl)methyl)cyclohexyl)-2-(2-(1-(4-methoxyphenylsulfonyl)piperidin-2-yl)ethoxy)acetamide]", "inhibition at 10 µM": 34}
{"smiles": "COc1cc(C)c(S(=O)(=O)N2CCCC(OCC(=O)NCCC3CCC(C(c4cccs4)N(C)C)CC3)C2)c(C)c1C", "note": "(stereo not shown) [Example 130, N-(2-(4-((dimethylamino)(thiophen-2-yl)methyl)cyclohexyl)ethyl)-2-(1-(4-methoxy-2,3,6-trimethylphenylsulfonyl)piperidin-3-yloxy)acetamide]", "inhibition at 10 µM": 15}
{"smiles": "COc1ccc(S(=O)(=O)N2Cc3ccccc3CC2COCC(=O)NCC2CCC(C(c3cccs3)N(C)C)CC2)cc1", "note": "(stereo not shown) [Example 7, N-((4-((dimethylamino)(thiophen-2-yl)methyl)cyclohexyl)methyl)-2-((2-(4-methoxyphenylsulfonyl)-1,2,3,4-tetrahydroisoquinolin-3-yl)methoxy)acetamide]", "inhibition at 10 µM": 27}
{"smiles": "COc1ccc(S(=O)(=O)N(C)CCOCC(=O)NCCC2CCC(C(c3cccs3)N(C)C)CC2)cc1", "note": "(stereo not shown) [Example 128, N-(2-(4-((dimethylamino)(thiophen-2-yl)methyl)cyclohexyl)ethyl)-2-(2-(4-methoxy-N-methylphenylsulfonamido)ethoxy)acetamide]", "inhibition at 10 µM": 46}
{"smiles": "COc1ccc(S(=O)(=O)N2CCCCC2COCC(=O)NCCC2CCC(C(c3cccs3)N(C)C)CC2)cc1OC", "note": "(stereo not shown) [Example 120, 2-((1-(3,4-dimethoxyphenylsulfonyl)piperidin-2-yl)methoxy)-N-(2-(4-((dimethylamino)(thiophen-2-yl)methyl)cyclohexyl)ethyl)acetamide]", "inhibition at 10 µM": -14}
{"smiles": "CN(C)C(c1ccccc1)C1CCC(CNC(=O)COC2CCN(S(=O)(=O)c3cccc(C(F)(F)F)c3)C2)CC1", "note": "(stereo not shown) [Example 113, N-((4-((dimethylamino)(phenyl)methyl)cyclohexyl)methyl)-2-(1-(3-(trifluoromethyl)phenylsulfonyl)pyrrolidin-3-yloxy)acetamide]", "inhibition at 10 µM": 28}
{"smiles": "CN(C)C(c1cccs1)C1CCC(CNC(=O)COCCN(C)S(=O)(=O)c2ccc(Cl)cc2Cl)CC1", "note": "(stereo not shown) [Example 8, 2-(2-(2,4-dichloro-N-methylphenylsulfonamido)ethoxy)-N-((4-((dimethylamino)(thiophen-2-yl)methyl)cyclohexyl)methyl)acetamide]", "inhibition at 10 µM": 62}
{"smiles": "CCN(CCOCC(=O)NCCC1CCC(C(c2cccs2)N(C)C)CC1)S(=O)(=O)c1c(C)cc(OC)c(C)c1C", "note": "(stereo not shown) [Example 103, N-(2-(4-((dimethylamino)(thiophen-2-yl)methyl)cyclohexyl)ethyl)-2-(2-(N-ethyl-4-methoxy-2,3,6-trimethylphenylsulfonamido)ethoxy)acetamide]", "inhibition at 10 µM": 84}
{"smiles": "COc1cc(C)c(S(=O)(=O)N(C)CCOCC(=O)NC2CCC(C(c3cccs3)N(C)C)CC2)c(C)c1", "note": "(stereo not shown) [Example 111, N-(4-((dimethylamino)(thiophen-2-yl)methyl)cyclohexyl)-2-(2-(4-methoxy-N,2,6-trimethylphenylsulfonamido)ethoxy)acetamide]", "inhibition at 10 µM": 104}
{"smiles": "CN(C)C(c1cccs1)C1CCC(CCNC(=O)COCCN(Cc2ccccc2)S(=O)(=O)c2ccccc2)CC1", "note": "(stereo not shown) [Example 116, 2-(2-(N-benzylphenylsulfonamido)ethoxy)-N-(2-(4-((dimethylamino)(thiophen-2-yl)methyl)cyclohexyl)ethyl)acetamide]", "inhibition at 10 µM": 14}
{"smiles": "CN(C)C(c1cccs1)C1CCC(CNC(=O)COC2CCN(S(=O)(=O)c3ccc(F)cc3)C2)CC1", "note": "(stereo not shown) [Example 97, N-((4-((dimethylamino)(thiophen-2-yl)methyl)cyclohexyl)methyl)-2-(1-(4-fluorophenylsulfonyl)pyrrolidin-3-yloxy)acetamide]", "inhibition at 10 µM": 28}
{"smiles": "COc1ccc(S(=O)(=O)N2CCCCC2COCC(=O)NCC2CCC(C(c3cccs3)N(C)C)CC2)cc1OC", "note": "(stereo not shown) [Example 133, 2-((1-(3,4-Dimethoxyphenylsulfonyl)piperidin-2-yl)methoxy)-N-((4-((dimethylamino)(thiophen-2-yl)methyl)cyclohexyl)methyl)acetamide]", "inhibition at 10 µM": 7}
